Results published in patent US9540337B2, “Gamma-glutamyl transpeptidase inhibitors and methods of use” (The Board of Regents of the University of Oklahoma, priority 2012, dated 2017).
Where two headings read alike, the source gives them in different places.

Columns and labels:
[1] = Cytotoxicity in dividing 786-O cells (MTT assay, 72 hours); type: cell-based, human; details: human, 786-o cells, dividing 786-O cells, 72 hours; read-out: LD50
Method: (§1) Cell Lines: 786-0 cells (ATCC CRL-1932), a human renal adenocarcinoma cell line, were grown in Dulbecco's Modified Eagle's Medium (DMEM) supplemented with 10% fetal bovine serum (FBS) and penicillin/streptomycin (50 units/ml, 50 μg/ml). NIH3T3 cells (ATCC CRL 1658) which are GGT-negative and NIH3T3 cells expressing hGGT [described previously were grown in DMEM/F12 media supplemented with 5% FBS and 0.2 mg/ml G418.
(§2) Cytotoxicity Assays: 786-0 cells were plated at 10^3 cells/well in a 96-well plate in DMEM supplemented with 10% FBS and penicillin/streptomycin (50 units/ml, 50 μg/ml). After 24 hours, the media was changed to fresh media containing OU749 analogs. A 100 mM stock of OU749 and each of its analogs were made in DMSO then diluted in DMEM. Control wells were treated with equivalent concentrations of DMSO. Cell viability was determined 72 hours after the addition of the inhibitors by the MTT assay. For the toxicity of the OU749 and its analogs in 786-0 cells, all determinations were done in triplicate. The LD50 of each compound and the standard deviation (S.D.) were calculated with a Prism log (inhibitor) versus normalized response (variable slope) curve fit (Prism, GraphPad Software Inc., San Diego, Calif.).

786-0 cells = experiment: as above; type: cell-based, human; details: LD50 ratio, 786-O cells
Method: as §1, §2

Human GGT1 (hGGT) [2] = target: T1, Human GGT1 (hGGT) (Homo sapiens, UniProt P19440); experiment: L-GpNA Transpeptidation Assay with GlyGly as acceptor; type: biochemical; parameters: lacking the transmembrane domain; made in house; host or cells: Pichia pastoris
T1 sequence (P19440 381-569 limits assumed): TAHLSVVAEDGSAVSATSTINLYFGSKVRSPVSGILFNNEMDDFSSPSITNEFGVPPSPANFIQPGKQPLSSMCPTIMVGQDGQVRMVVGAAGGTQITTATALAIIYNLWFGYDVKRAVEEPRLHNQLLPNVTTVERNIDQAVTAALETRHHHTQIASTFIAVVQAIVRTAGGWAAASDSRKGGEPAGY
T1 sequence (P19440 27-380 limits assumed): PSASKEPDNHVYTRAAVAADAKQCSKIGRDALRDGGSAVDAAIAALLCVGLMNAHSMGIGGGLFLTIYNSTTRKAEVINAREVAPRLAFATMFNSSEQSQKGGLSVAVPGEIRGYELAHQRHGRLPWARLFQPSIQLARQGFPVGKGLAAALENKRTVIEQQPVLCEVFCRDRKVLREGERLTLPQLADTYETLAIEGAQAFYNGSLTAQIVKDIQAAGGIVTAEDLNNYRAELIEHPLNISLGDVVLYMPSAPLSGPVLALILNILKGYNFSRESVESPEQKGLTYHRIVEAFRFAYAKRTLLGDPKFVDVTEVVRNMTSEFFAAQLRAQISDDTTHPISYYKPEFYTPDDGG
Method: Transpeptidation Reaction: The same assay buffer was used for both the hydrolysis reaction and the transpeptidation reaction. The transpeptidation reaction included 40 mM glycylglycine (glygly, Sigma, St. Louis, Mo.) as the acceptor. […] The concentration of L-GpNA was 3 mM for experiments in which the concentration of glygly was varied. To initiate the transpeptidation reaction, 4 mU GGT were added.
1. […] 3 and 4. […] 5 (25).
L-GpNA Transpeptidation Assay: The assay has been described previously. […] The concentration of L-GpNA was 3 mM for experiments in which the concentration of GlyGly was varied. To initiate the transpeptidation reaction, 4 mU GGT were added.

hGGT = target: T2, hGGT (Homo sapiens, UniProt P19440); experiment: L-Glutamate Release Assay (Hydrolysis of GSH); type: biochemical; details: for Ki: GSH hydrolysis, read-out: GSH Kii
T2 construct: lacking the transmembrane domain; made in house; host or cells: Pichia pastoris
T2 sequence (P19440 381-569 limits assumed): as the sequence (P19440 381-569 limits assumed) above
T2 sequence (P19440 27-380 limits assumed): as the sequence (P19440 27-380 limits assumed) above
Method: L-Glutamate Release Assay (Hydrolysis of GSH): This assay measures the production of glutamate from the hydrolysis of GSH by GGT enzyme and has been described in detail previously. The concentration of the substrate, GSH, was varied from 5 μM to 20 μM. The concentration of the inhibitors, OU749 and its analogs, were varied from 15.6 μM to 250 μM. The reaction was initiated with the addition of 10 mU hGGT. […] All compounds were also evaluated as inhibitors of glutamate dehydrogenase, the enzyme in the second half of the L-glutamate release assay. None of the compounds in this study inhibited glutamate dehydrogenase.

Human GGT1 (hGGT) [3] = target: T1, Human GGT1 (hGGT); experiment: D-GpNA Hydrolysis Assay (release of pNA, 405 nm, pH 7.4)
Method: (§3) Enzyme Isolation: Human GGT1 (P19440), lacking the transmembrane domain, was expressed in Pichia pastoris and isolated as previously described (14). […] One unit of GGT activity was defined as the amount of enzyme that released 1 μmol of paranitroaniline/min at 37° C. at pH 7.4 in the transpeptidation reaction.
The reaction was initiated with the addition of 19 mU GGT. The reaction was incubated at 37° C. and monitored continuously at 405 nm by a Bio-Rad model 680 microplate reader with Microplate Manager 5.2 software (Bio-Rad, Hercules, Calif.).
Data Analysis: Samples in each experiment were run in triplicate. Each inhibitor was evaluated in two or more independent experiments. Double reciprocal plots were generated to assess data quality and determine the correct rate equation for data fitting. Data were fitted using the proper rate equation and the Marquardt-Levenberg algorithm supplied with the Enzfitter program (BIOSOFT, Cambridge, UK). Kinetic parameters with standard errors were estimated using a simple weighting method.
Data adhering to Michaelis-Menten Kinetics were fitted to eq. 1. Data for initial rate patterns with D-, L-GpNA varied at different fixed levels of glygly were fitted to eq. […] Data for competitive and uncompetitive inhibition were fitted to eqs. 3 and 4. Data for the dependence of Vmax and Vmax/KD-GpNA on the concentration of activator were fitted using eq. 5 (25).
In eqs 1-6, Vmax are the initial and maximum rates, respectively, Ka and Kb are Michaelis constants for substrates A and B, respectively, and Kis and Kii are slope and intercept inhibition constants. In eq. 5, a is the value of Vmax or Vmax/KD-GpNA at zero activator/inhibitor, KID is the activation or inhibition constant, and KIN is a constant that causes the parameter to go to a constant value at infinite concentrations of X, the activator/inhibitor. The product a(KID/KIN) is the value of Vmax or Vmax/KD-GpNA at infinite activator/inhibitor (25). Data for noncompetitive inhibition were fitted to eq. 6. Data for the dependence of Vmax and Vmax/KD-GpNA on the concentration of activator were fitted using […].
as §3, with “hGGT” for “Human GGT1”, “described.” for “described (14).”, “reaction with L-GpNA.” for “reaction.”
D-GpNA Hydrolysis Assay: The assay was carried out as previously described. […] The reaction was initiated with the addition of 19 mU GGT as determined by the L-GpNA transpeptidation assay. The reaction was incubated at 37° C. and monitored continuously at 405 nm.

Human GGT1 = target: T3, Human GGT1 (Homo sapiens, UniProt P19440); experiment: Initial rate studies with D-GpNA and L-GpNA, with or without acceptor GlyGly; type: biochemical; details: for second order rate constant: rounded in discussion; for fold increase of Vmax in the presence of GlyGly: plus vs minus GlyGly
T3 construct: lacking the transmembrane domain; made in house; host or cells: Pichia pastoris
T3 sequence (P19440 381-569 limits assumed): as the sequence (P19440 381-569 limits assumed) above
T3 sequence (P19440 27-380 limits assumed): as the sequence (P19440 27-380 limits assumed) above
Method: Transpeptidation Reaction: The same assay buffer was used for both the hydrolysis reaction and the transpeptidation reaction. The transpeptidation reaction included 40 mM glycylglycine (glygly, Sigma, St. Louis, Mo.) as the acceptor. The concentration of the substrate for the transpeptidation reaction, L-GpNA (Sigma) was varied from 0.25 mM to 3 mM. The concentration of L-GpNA was 3 mM for experiments in which the concentration of glygly was varied. To initiate the transpeptidation reaction, 4 mU GGT were added.
1. […] 2, which describes a ping pong kinetic mechanism. […] 3 and 4. […] 5 (25).
In eq. […] Data for noncompetitive inhibition were fitted to eq. 6. […] 6 [25].
Initial Rate Studies with D-GpNA and L-GpNA: In this study, the inhibition of both the GGT hydrolysis and transpeptidation reactions by OU749 and a new series of thiadiazol sulfonamide analogs was studied. The hydrolysis and transpeptidation reactions were analyzed separately by using different stereo-isomers of the γ-glutamyl-p-nitroanilide (GpNA) substrate. The kinetics of both reactions were first characterized in the absence of inhibitors. Cleavage of the γ-glutamyl bond of either D-GpNA or L-GpNA releases p-nitroanaline, which has an OD405 of 7,680 M^−1 cm^−1, allowing for the reactions to be monitored continuously with high sensitivity. The D-glutamyl isomer of GpNA was used as the substrate for the hydrolysis reaction, in which water serves as the acceptor. The L-glutamyl isomer of GpNA, with glycylglycine (GlyGly) as an acceptor, was used for the transpeptidation reaction. L-GpNA can serve as both a substrate and a low affinity acceptor, while D-GpNA is unable to serve as an acceptor (18, 21, 26). Therefore, in the absence of an added acceptor GGT exclusively catalyzes a hydrolysis reaction with D-GpNA as the substrate. When L-GpNA is used as a substrate, the GGT reaction is a mixture of both the hydrolysis and transpeptidation reactions. Under these conditions, the rate of the reaction is the sum of hydrolysis and transpeptidation reactions, with the hydrolysis reaction contributing more at low L-GpNA concentrations and transpeptidation dominating at saturating substrate concentrations. […] However, the maximum rate (Vmax) obtained with L-GpNA was approximately 3-times faster than that measured with D-GpNA, and the KGpNA for L-GpNA was 5-times higher than that measured for D-GpNA. This is at least partially due to the ability of L-GpNA to serve as an acceptor, resulting in a transpeptidation reaction, which is faster than the hydrolysis reaction. Therefore, to study the hydrolysis reaction in isolation, D-GpNA was used as the substrate without any added acceptor.

[4] = Table 5, read-out: GlyGly with L-GpNA Kis
[5] = Table 5, read-out: L-GpNA with GlyGly Kii

## COc1ccc(Cc2nnc(NS(=O)(=O)c3cccc(Cl)c3)s2)cc1 [Compound 3]
[1]
  CC50 at 72 h: 382 µM
786-0 cells
  fold less toxic (cytotoxic) than OU749: 3 fold
Human GGT1 (hGGT) [2]; GlyGly varied, 3 mM L-GpNA, Table 2, read-out: Transpeptidation GlyGly Kis
  Ki: 11.9 ± 1.1 µM
Human GGT1 (hGGT) [2]; L-GpNA varied, 40 mM GlyGly, Table 2, read-out: Transpeptidation L-GpNA Kii
  Ki: 22 ± 0.7 µM
hGGT; Table 6
  Ki: 67 ± 6 µM
hGGT; relative to OU749
  fold more potent than OU749 in inhibiting GSH hydrolysis: 5.6 fold
Human GGT1 (hGGT) [3]
  Ki: 74.9 ± 2.2 µM

## Cc1ccc(Cc2nnc(NS(=O)(=O)c3ccc(N)cc3)s2)cc1 [Compound 22]
[1]
  CC50 at 72 h: 727 ± 0.02 µM
Human GGT1 (hGGT) [2]; [4]
  Ki: 6 ± 1 µM
Human GGT1 (hGGT) [2]; [5]
  Ki: 30 ± 4 µM
hGGT; Table 5
  Ki: 82 ± 13 µM
Human GGT1 (hGGT) [3]
  Ki: 31 ± 1 µM

## CN(C)c1ccc(Cc2nnc(NS(=O)(=O)c3ccc(N)cc3)s2)cc1 [Compound 27]
Human GGT1 (hGGT) [2]; [4]
  Ki: 24 ± 4 µM
Human GGT1 (hGGT) [2]; [5]
  Ki: 275 ± 12 µM
hGGT; Table 5
  Ki: 363 ± 35 µM
Human GGT1 (hGGT) [3]
  Ki: 180 ± 5 µM

## Nc1ccc(S(=O)(=O)Nc2nnc(Cc3ccc(Cl)cc3)s2)cc1 [Compound 28]
Human GGT1 (hGGT) [2]; [4]
  Ki: 7 ± 1 µM
Human GGT1 (hGGT) [2]; [5]
  Ki: 54 ± 1 µM
hGGT; Table 5
  Ki: 419 ± 27 µM
Human GGT1 (hGGT) [3]
  Ki: 56 µM

## Nc1ccc(S(=O)(=O)Nc2nnc(Cc3ccc(Cl)c(Cl)c3)s2)cc1 [Compound 29]
Human GGT1 (hGGT) [2]
  decrease of Kis as competitive inhibitor of GlyGly relative to OU749: up to 11 fold
Human GGT1 (hGGT) [2]; [4]
  Ki: 5 ± 1 µM
Human GGT1 (hGGT) [2]; [5]
  Ki: 34 ± 4 µM
hGGT; Table 5
  Ki: 905 ± 53 µM
Human GGT1 (hGGT) [3]
  Ki: 32 ± 1 µM

## COc1ccc(Cc2nnc(NS(=O)(=O)c3ccc4ccccc4c3)s2)cc1 [Compound 30]
Human GGT1 (hGGT) [2]; Table 6, read-out: GlyGly with L-GpNA Kis
  Ki: 143 ± 20 µM
Human GGT1 (hGGT) [2]; Table 6, read-out: L-GpNA with GlyGly Kii
  Ki: 364 ± 43 µM
hGGT; Table 6
  Ki: 206 ± 37 µM
hGGT; relative to Compound 6
  fold less potent than Compound 6 in inhibiting catabolism of GSH: 2.1 fold
Human GGT1 (hGGT) [3]
  Ki: 415 ± 50 µM

## N[C@H](CCC(=O)Nc1ccc([N+](=O)[O-])cc1)C(=O)O [D-GpNA, D-gamma-glutamyl para-nitroanalide]
Human GGT1; minus acceptor
  V: 2.1 ± 0.2 mM/min/nM
  V/KGpNA: 2.2e+08 ± 1.7e+06 M⁻¹ s⁻¹
  second order rate constant: 2.17e+08 M⁻¹ s⁻¹
Human GGT1; plus acceptor GlyGly
  KGlyGly: 7.0 ± 0.3 mM
  V: 53 ± 11 mM/min/nM
  V/KGlyGly: 1.27e+08 ± 2.5e+07 M⁻¹ s⁻¹
  V/KGpNA: 2.12e+08 ± 4.17e+07 M⁻¹ s⁻¹
Human GGT1
  fold increase of Vmax in the presence of GlyGly: 25 fold

## N[C@@H](CCC(=O)N[C@@H](CS)C(=O)NCC(=O)O)C(=O)O [GSH, glutathione, reference compound]
Human GGT1 (hGGT) [2]; in the presence of 3 mM L-GpNA, read-out: Kii of GSH vs GlyGly
  Ki: 3000 ± 500 µM
Human GGT1 (hGGT) [2]; in the presence of 3 mM L-GpNA, read-out: Kis of GSH vs GlyGly
  Ki: 800 ± 100 µM
Human GGT1 (hGGT) [2]; in the presence of 40 mM GlyGly, read-out: Kii of GSH vs L-GpNA
  Ki: 1700 ± 20 µM
Human GGT1 (hGGT) [2]; in the presence of 40 mM GlyGly, read-out: Kis of GSH vs L-GpNA
  Ki: 1400 ± 10 µM
Human GGT1 (hGGT) [3]
  Ki: 10 ± 1.2 µM
Human GGT1; absence of GlyGly, read-out: Kis of GSH vs L-GpNA
  Ki: 73 ± 6 µM

## N[C@@H](CCC(=O)Nc1ccc([N+](=O)[O-])cc1)C(=O)O [L-GpNA, L-gamma-glutamyl para-nitroanilide]
Human GGT1; minus acceptor
  KGpNA relative to D-GpNA: 5 times
  V: 6.5 ± 0.2 mM/min/nM
  V/KGpNA: 1.3e+08 ± 3.3e+06 M⁻¹ s⁻¹
  second order rate constant: 1.3e+08 M⁻¹ s⁻¹
Human GGT1; plus acceptor GlyGly
  KGlyGly: 9.9 ± 0.9 mM
  V: 141 ± 11 mM/min/nM
  V/KGlyGly: 2.33e+08 ± 1.7e+07 M⁻¹ s⁻¹
  V/KGpNA: 1.95e+09 ± 1.5e+08 M⁻¹ s⁻¹
Human GGT1
  fold increase of Vmax in the presence of GlyGly: 22 fold
